Test results as given in patent publication US20060211739A1, “Use of selective P2X7 receptor antagonists” (priority 2005, published 2006).
Where a name gives a salt, the structure may show the parent alone.

melting point	SMILES
176 to 177 °C	Clc1ccc(-c2nnnn2Cc2ccccc2)s1 (as salt: hydrochloride) [Example 50, 1-benzyl-5-(5-chlorothien-2-yl)-1H-tetraazole]
104 to 105 °C	Cc1ncccc1Cn1nnnc1-c1cccc(Cl)c1Cl.Cl
176 to 178 °C	Cc1noc(C)c1Cn1nnnc1-c1cccc(Cl)c1Cl (as salt: hydrochloride) [Example 38, 5-(2,3-dichlorophenyl)-1-[(3,5-dimethylisoxazol-4-yl)methyl]-1H-tetraazole]
146 to 148 °C	Cc1ccnc(C)c1Cn1nnnc1-c1cccc(Cl)c1Cl (as salt: hydrochloride) [Example 30, 3-{[5-(2,3-dichlorophenyl)-1H-tetraazol-1-yl]methyl}-2,4-dimethylpyridine]
154 to 156 °C	Cc1ccncc1Cn1nnnc1-c1cccc(Cl)c1Cl (as salt: hydrochloride) [Example 29, 3-{[5-(2,3-dichlorophenyl)-1H-tetraazol-1-yl]methyl}-4-methylpyridine]
161 to 163 °C	CCOC(=O)c1nocc1Cn1nnnc1-c1cccc(Cl)c1Cl (as salt: hydrochloride) [Example 34, ethyl 4-{[5-(2,3-dichlorophenyl)-1H-tetraazol-1-yl]methyl}isoxazole-3-carboxylate]
153 to 154 °C	Clc1cccc(-c2nnnn2Cc2cscn2)c1Cl (as salt: hydrochloride) [Example 31, 5-(2,3-dichlorophenyl)-1-(1,3-thiazol-4-ylmethyl)-1H-tetraazole]
200 to 201 °C	Cl.Clc1ccc(Cl)c(-c2nnnn2Cc2cccnc2)c1
156 to 158 °C	Cc1nc(Cn2nnnc2-c2cccc(Cl)c2Cl)cs1 (as salt: hydrochloride) [Example 32, 5-(2,3-dichlorophenyl)-1-[(2-methyl-1,3-thiazol-4-yl)methyl]-1H-tetraazole]
172 to 174 °C	Cc1ncccc1Cn1nnnc1-c1cc(Cl)ccc1Cl [Example 44, 3-{[5-(2,5-dichlorophenyl)-1H-tetraazol-1-yl]methyl}-2-methylpyridine]
166 to 168 °C	Cn1cncc1Cn1nnnc1-c1cccc(Cl)c1Cl (as salt: hydrochloride) [Example 37, 5-(2,3-dichlorophenyl)-1-[(1-methyl-1H-imidazol-5-yl)methyl]-1H-tetraazole]
196 to 197 °C	Brc1ccc(-c2nnnn2Cc2ccccc2)s1 (as salt: hydrochloride) [Example 51, 1-benzyl-5-(5-bromothien-2-yl)-1H-tetraazole]
174 to 175 °C	Cc1nc(C)c(Cn2nnnc2-c2cccc(Cl)c2Cl)s1 (as salt: hydrochloride) [Example 36, 5-(2,3-dichlorophenyl)-1-[(2,4-dimethyl-1,3-thiazol-5-yl)methyl]-1H-tetraazole]
151 to 153 °C	Cc1[nH]cnc1Cn1nnnc1-c1cccc(Cl)c1Cl (as salt: hydrochloride) [Example 35, 5-(2,3-dichlorophenyl)-1-[(5-methyl-1H-imidazol-4-yl)methyl]-1H-tetraazole]
